The text below walks through data of PMC12736018, “Stereoselective Cytotoxicity of Enantiopure 3,3-Dichloro-γ-lactams: Correlating In Vitro Activity with In Vivo Tolerability” (Molecules, 2025).

For one series, the system named is HeLa cells. Nature of the series: NRU cell viability assay, HeLa. Particulars: Homo sapiens, 24 h. Format: cell-based, human. Here is the method: (§1) The murine Swiss albino fibroblast (3T3), the immortal human keratinocyte (HaCaT), the squamous cell carcinoma (A431), the human epithelial carcinoma (HeLa) and the human breast adenocarcinoma (MCF-7) cell lines were sourced from Celltec UB (Barcelona, Spain). All cells were maintained and grown in DMEM medium (4.5 g/L glucose) supplemented with 10% (v/v) FBS, 2 mM L-glutamine, 100 U/mL penicillin and 100 μg/mL streptomycin at 37 °C, 5% CO2. Cells were routinely cultured in 75 cm^2 culture flasks and were trypsinized using trypsin-EDTA when the cells reached approximately 80%. Cell concentration in the resulting suspension was assessed using the trypan blue assay, which enables direct discrimination between viable (unstained) and non-viable (blue) cells.
(§2) T3 and HaCaT cells (1 × 10^5 cells/mL), along with A431, HeLa, and MCF-7 cells (5 × 10^4 cells/mL), were cultured at defined seeding densities in the 60 central wells of a 96-well plate. Cells were first incubated for 24 h under standard incubator conditions (5% CO2, 37 °C). After this period, the culture medium was removed, and the cells were incubated for an additional 24 h with their corresponding compound solutions (1 mg/mL) previously diluted in a minimum amount of DMF (dimethylformamide) and then in DMEM medium supplemented with 5% FBS (100 µL) at the required concentration range (20 to 250 µg/mL). Cell viability following exposure to the lactam derivatives was evaluated using two complementary assays: NRU and MTT.
(§3) The neutral red uptake (NRU) assay is based on the accumulation of dye in the lysosomes of viable cells. After the cells were incubated for 24 h with the corresponding systems, the medium was removed, and the solutions were incubated with the NR dye (Sigma-Aldrich, St. Louis, MO, USA) solution (50 µg/mL) dissolved in the medium, without FBS and without phenol red (Lonza, Verviers, Belgium), for 3 h. Cells were then washed with sterile PBS, followed by the addition of 100 µL of a solution containing 50% absolute ethanol and 1% acetic acid in distilled water to extract the dye. To promote the total dissolution of the dye, plates were placed in a microtiter-plate shaker for 5 min at room temperature. The absorbance of the resulting solutions was measured at 550 nm (Bio-Rad 550 microplate reader, Bio-Rad California, Hercules, CA, USA). Finally, the effect of each treatment was calculated as the percentage of dye uptake by viable cells relative to the control cells (cells without any treatment). Finally, the effect of each treatment was calculated as the percentage of dye retained by viable cells compared with untreated control cells.
(§4) The half-maximal inhibitory concentration (IC50) values for the different formulations, across cell lines and experimental endpoints, were obtained by fitting the concentration-dependent viability curves. […] These findings reflect the very low cytotoxicity of the compounds toward these cell lines.

For the next series, the system named is MCF-7 cells. Nature of the series: NRU cell viability assay, MCF-7. Format: cell-based, human. Particulars: Homo sapiens, MCF7; MCF-7, NRU, 24 h. The protocol:
as §1, §2, §3, §4

The test system of series [1] is A431 cells. Kind of series: NRU cell viability assay, A431. Format: cell-based, human. Particulars: Homo sapiens, A-431, 24 h. Here is the method: as §1, §2, §3, §4
Series [2] deals with 3T3 cells. Nature of the series: MTT cell viability assay, 3T3. Particulars: Mus musculus, NIH3T3; 3T3, MTT, 24 h. Format: cell-based. Here is the method:
as §1, §2
(§5) Only living cells can reduce the yellow tetrazolium salt 3-(4,5-dimethyl-2-thiazolyl)-2,5-diphenyltetrazolium bromide (MTT) to insoluble purple formazan crystals. After a 24 h incubation of the cells with their corresponding NPs, the medium was removed and 100 µL of MTT (Sigma-Aldrich, St. Louis, MO, USA) in PBS (5 mg/mL) diluted 1:10 in culture medium without phenol red and without FBS (Lonza, Verviers, Belgium) was added to the cells. After 3 h of incubation, the medium was removed. Thereafter, 100 µL of DMSO (Sigma-Aldrich, St. Louis, MO, USA) was added to each well to dissolve the purple formazan crystals. Agitation and absorbance measurements of the extracted solution were carried out under the same conditions described for the NRU assay. The effect of each treatment was then expressed as the percentage of tetrazolium salt reduction by viable cells relative to untreated controls.
as §4

Series [3] relates to 3T3 cells. Nature of the series: NRU cell viability assay, 3T3. Format: cell-based. Particulars: Mus musculus, NIH3T3; 3T3, NRU, 24 h. Here is the method: as §1, §2
as §3, with “[…]” for “control cells.”

Another series relates to zebrafish embryos. Nature of the series: Touch-evoked response (TER) test. Particulars: 72 hpf, after 2 h washout. Format: in vivo. Here is the method:
Adult zebrafish, both male and female, were procured from a commercial supplier (Pisciber, Barcelona, Spain) and housed in a closed flow-through system with standardized dilution water, as specified in ISO 7346-1 [16] (2 mM CaCl2·2H2O; 0.5 mM MgSO4·7H2O; 0.75 mM NaHCO3; 0.07 mM KCl). The fish were maintained at a temperature of 26 ± 1 °C on a 14 h light and 10 h dark cycle and were daily fed in the morning with Artemia salina, and with commercial flake food in the afternoon (SDS400, Special Diet Services, Dietex, France). The day before eggs were needed, males and females were placed in a breeding tank with plants at a 2:1 male-to-female ratio. The following morning, eggs were collected 30 min after the lights were turned on. […]
At 72 hpf, test solutions were replaced with 0.3× Danieau’s solution without the chemical and incubated at 27 °C ± 1 °C for 2 h. […] In brief, videos were recorded using a Casio Exilim EX-ZR200 video camera (Tokyo, Japan) and the distance swam by zebrafish embryos was measured after three mechanical stimuli, applied to the tail with a forceps tip (Fine Science Tools, Dumont #5, Foster City, CA, USA) at 10 s intervals. […] Six larvae per concentration group were evaluated in at least three independent experiments.
Statistical analysis was performed using GraphPad Prism v.10.0.2. TER test was analyzed using one-way ANOVA and the post-hoc multiple-comparison Dunnett test. […]

Series [4] relates to A431 cells. Kind of series: MTT cell viability assay, A431. Particulars: Homo sapiens, A-431, 24 h. Format: cell-based. Here is the method:
as §1, §2, §5, §4
A general note: Tetrazolium assays rely on reduction of a dye to a coloured formazan, in cell work by metabolically active cells.

Series [5] concerns HaCaT cells. Nature of the series: NRU cell viability assay, HaCaT. Format: cell-based. Particulars: Homo sapiens, 24 h. Here is the method: as §1, §2
as §3, with “[…]” for “control cells.”

For series [6], the system named is HaCaT cells. Nature of the series: MTT cell viability assay, HaCaT. Format: cell-based. Particulars: Homo sapiens, 24 h. The protocol:
as §1, §2, §5, §4

≈ marks a conversion by molar mass, not a printed value.

What is called IC50 is the point on the concentration scale where inhibition reaches its midpoint. Take `C[C@H](c1ccccc1)N1C[C@H](C)C(Cl)(Cl)C1=O` [Compound 4]: the IC50 in the series with HeLa cells is 77.5 µg/mL (≈ 285 µM); with MCF-7 cells, > 250 µg/mL; in the series with A431 cells [1], 108 µg/mL (≈ 396 µM); in the series on 3T3 cells [2], 94.6 µg/mL (≈ 348 µM); in the series on 3T3 cells [3], 173 µg/mL (≈ 634 µM); with A431 cells [4] it was 164 µg/mL (≈ 604 µM). The results for the IC50 with HaCaT cells [5] and in the series with HaCaT cells [6] were > 250 µg/mL and 57.3 µg/mL (≈ 210 µM), respectively. The “concentration from which a statistically significant adverse effect was observed in the TER” value with zebrafish embryos is ≥ 7800 ng/mL.
Regarding `C[C@@H]1CN([C@@H](C)c2ccccc2)C(=O)C1(Cl)Cl` [Compound 3, (R)-3,3-dichloro-4-methyl-1-((S)-1-phenylethyl)pyrrolidin-2-one], the IC50 is 160 µg/mL (≈ 588 µM) in the series with HeLa cells; 60 µg/mL (≈ 220 µM) with MCF-7 cells; 60.2 µg/mL (≈ 221 µM) in the series with A431 cells [1]; 30 µg/mL (≈ 110 µM) in the series with 3T3 cells [2]; 65 µg/mL (≈ 239 µM) in the series with 3T3 cells [3]; 56 µg/mL (≈ 206 µM) with A431 cells [4]. Also, the IC50 is > 250 µg/mL in the series with HaCaT cells [5] and 122 µg/mL (≈ 450 µM) in the series on HaCaT cells [6]. The “concentration from which a statistically significant adverse effect was observed in the TER” value in the series on zebrafish embryos is ≥ 7800 ng/mL.
